Assay results as given in paper PMC12030497, “Plasma Protein Binding, Biostability, Metabolite Profiling, and CYP450 Phenotype of TPB15 Across Different Species: A Novel Smoothened Inhibitor for TNBC Therapy” (Pharmaceutics, 2025).
“And” between values parts separate entries of the source, which are not always exact repeats. Equal values may be shown once.

Key:
CYP2A6 = target: T1, CYP2A6 (Homo sapiens, UniProt P11509); assay: TPB15 metabolism in human liver microsomes with CYP2A6 inhibitor; assay type: in vitro ADME; details: inhibition of TPB15 metabolism, HLM, 90 min, Coumarin 25 μM (CYP2A6)
T1 construct: tissue Jiangsu Kejing Bio-Pharmaceutical Co., Ltd; host or cells: human liver microsomes
T1 sequence (P11509 1-494): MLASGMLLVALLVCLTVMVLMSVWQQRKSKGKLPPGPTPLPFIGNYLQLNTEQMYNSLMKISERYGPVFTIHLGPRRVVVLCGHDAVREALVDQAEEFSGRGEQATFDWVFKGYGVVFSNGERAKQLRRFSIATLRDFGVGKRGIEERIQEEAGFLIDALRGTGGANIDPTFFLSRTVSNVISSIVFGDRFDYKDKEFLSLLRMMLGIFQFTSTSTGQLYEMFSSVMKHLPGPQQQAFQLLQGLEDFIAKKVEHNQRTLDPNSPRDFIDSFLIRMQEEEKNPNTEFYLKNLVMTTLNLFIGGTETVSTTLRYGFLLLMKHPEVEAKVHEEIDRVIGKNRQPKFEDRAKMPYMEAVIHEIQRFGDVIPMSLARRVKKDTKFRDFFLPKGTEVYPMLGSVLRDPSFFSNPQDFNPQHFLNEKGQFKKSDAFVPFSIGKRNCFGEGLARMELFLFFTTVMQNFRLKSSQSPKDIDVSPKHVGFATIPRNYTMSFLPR
Description: (§1) The specific inhibitors of P450 were employed to evaluate the metabolic phenotype of TPB15, and the metabolic enzymes corresponding to each inhibitor and the system concentration are shown in Table 2. The specific procedure was as follows: a total of 0.5 μL of the substrate TPB15 and 0.5 μL of each specific inhibitor were mixed with 449 μL of human liver microsomes, and the mixture was incubated at 37 °C for 10 min. Subsequently, 50 μL of NADPH with a concentration of 10 mM in PBS were introduced to initiate the reaction. After 90 min, 50 μL of the reaction mixture were transferred to a 150 μL ice-cold methanol solution containing an internal standard to terminate the reaction. The mixture was vortexed for 2 min and then centrifuged at 4 °C at 14,800 rpm for 10 min. A volume of 130 μL of the supernatant was then transferred to a new EP tube, which was centrifuged again at 4 °C at 14,800 rpm for another 10 min. Finally, 5 μL of the supernatant were injected for the determination of substrate TPB15 concentration. Three parallel samples were prepared for each time point. The experiment also included a positive control group and a negative control group. In the positive control group, substrate TPB15 was incubated with human liver microsomes for 90 min without the addition of inhibitors.

[1] = tested on: CYP450 enzymes in human liver microsomes; assay: Metabolic enzyme phenotype of TPB15 in human liver microsomes with selective CYP450 inhibitors; assay type: in vitro ADME; details: 90 min
Description: The specific procedure was as follows: a total of 0.5 μL of the substrate TPB15 and 0.5 μL of each specific inhibitor were mixed with 449 μL of human liver microsomes, and the mixture was incubated at 37 °C for 10 min. Subsequently, 50 μL of NADPH with a concentration of 10 mM in PBS were introduced to initiate the reaction. After 90 min, 50 μL of the reaction mixture were transferred to a 150 μL ice-cold methanol solution containing an internal standard to terminate the reaction. The mixture was vortexed for 2 min and then centrifuged at 4 °C at 14,800 rpm for 10 min. A volume of 130 μL of the supernatant was then transferred to a new EP tube, which was centrifuged again at 4 °C at 14,800 rpm for another 10 min. Finally, 5 μL of the supernatant were injected for the determination of substrate TPB15 concentration. Three parallel samples were prepared for each time point. The experiment also included a positive control group and a negative control group. In the positive control group, substrate TPB15 was incubated with human liver microsomes for 90 min without the addition of inhibitors. In the negative control group, the substrate TPB15 was incubated for 90 min without inhibitors, with human liver microsomes replaced by an equal volume of phosphate-buffered saline (PBS). The metabolic rate of TPB15 in human liver microsomes was represented by the elimination rate of the substrate TPB15.

CYP2C9 = CYP2C9 (Homo sapiens, UniProt P11712); details: inhibition of TPB15 metabolism, HLM, 90 min, Sulfaphenazole 20 μM (CYP2C9)
Description: as §1

CYP2C8 = target: T2, CYP2C8 (Homo sapiens, UniProt P10632); assay: TPB15 metabolism in human liver microsomes with CYP2C8 inhibitor; assay type: in vitro ADME; details: inhibition of TPB15 metabolism, HLM, 90 min, Quercetin 20 μM (CYP2C8)
T2 construct: tissue Jiangsu Kejing Bio-Pharmaceutical Co., Ltd; host or cells: human liver microsomes
T2 sequence (P10632 1-490): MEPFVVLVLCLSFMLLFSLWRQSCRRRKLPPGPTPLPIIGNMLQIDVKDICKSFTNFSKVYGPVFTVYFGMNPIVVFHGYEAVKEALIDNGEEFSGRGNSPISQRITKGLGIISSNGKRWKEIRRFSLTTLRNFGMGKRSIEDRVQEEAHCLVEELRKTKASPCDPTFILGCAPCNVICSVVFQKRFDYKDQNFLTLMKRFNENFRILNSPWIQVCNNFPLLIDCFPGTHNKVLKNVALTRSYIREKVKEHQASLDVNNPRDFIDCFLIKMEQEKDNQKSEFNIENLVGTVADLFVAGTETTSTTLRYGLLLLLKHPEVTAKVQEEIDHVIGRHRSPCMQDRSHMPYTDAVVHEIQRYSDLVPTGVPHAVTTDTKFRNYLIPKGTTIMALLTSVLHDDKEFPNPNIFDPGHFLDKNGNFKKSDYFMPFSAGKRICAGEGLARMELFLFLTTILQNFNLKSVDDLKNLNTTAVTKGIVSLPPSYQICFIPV
Description: Three parallel samples were prepared for each time point.

[2] = Metabolic stability in human liver microsomes (HLM); assay type: in vitro ADME; details: HLM; for Concentration (ng/mL) of testosterone, Mean: positive control substrate
Description: (§2) A total of 450 μL liver microsomes from mice, rat, dog, monkey, and human were spiked with 0.5 μL of TPB15 solution and pre-incubated in a water bath at 37 °C for 10 min. Following this, 50 μL of NADPH were added to initiate the reaction. The concentrations of each substance in the incubation system are detailed in Table 1. After initiating the metabolic reaction, 50 μL aliquots were removed at incubation times of 0, 5, 15, 30, 45, 60, and 90 min and transferred to 150 μL of icy methanol solution containing the internal standard to terminate the reaction. The mixtures were swirled for 2 min and then centrifuged at 14,800 rpm at 4 °C for 10 min. […] Three samples were prepared in parallel at each time point. Additionally, both a positive control group and a blank control group were established. In the positive control group, substrate testosterone was incubated with liver microsomes from mice, rat, dog, monkey, and human. The concentrations of substrate testosterone were measured at 0 and 90 min, and the changes in concentration before and after incubation were compared to confirm the activity of the liver microsomes. The blank control group included one drug-containing inactivated liver microsome sample for each species. The metabolic stability parameters, including in vitro elimination half-life (T1/2) and in vitro intrinsic clearance rate (CLint), were calculated based on this graph using the following formulas: in vitro elimination half-life (T1/2) = −0.693/k and in vitro intrinsic clearance rate (CLint) = (0.693 × incubation medium (mL))/(liver microsomes (mg) × T1/2).

[3] = Metabolic stability in rat liver microsomes (RLM); assay type: in vitro ADME, Sprague-Dawley rat; details: RLM; for Concentration (ng/mL) of testosterone, Mean: positive control substrate
Description: as §2

[4] = Metabolic stability in mouse liver microsomes (MouLM); assay type: in vitro ADME, KM mice; details: MouLM, 0 min
Description: as §2

[5] = Metabolic stability in monkey liver microsomes (MLM); assay type: in vitro ADME, crab-eating monkey; details: MLM; for Concentration (ng/mL) of testosterone, Mean: positive control substrate
Description: as §2

[6] = Metabolic stability in dog liver microsomes (DLM); assay type: in vitro ADME, beagle dog; details: DLM; for Concentration (ng/mL) of testosterone, Mean: positive control substrate
Description: as §2

Chain of CYP2C9 (P11712 whole entry): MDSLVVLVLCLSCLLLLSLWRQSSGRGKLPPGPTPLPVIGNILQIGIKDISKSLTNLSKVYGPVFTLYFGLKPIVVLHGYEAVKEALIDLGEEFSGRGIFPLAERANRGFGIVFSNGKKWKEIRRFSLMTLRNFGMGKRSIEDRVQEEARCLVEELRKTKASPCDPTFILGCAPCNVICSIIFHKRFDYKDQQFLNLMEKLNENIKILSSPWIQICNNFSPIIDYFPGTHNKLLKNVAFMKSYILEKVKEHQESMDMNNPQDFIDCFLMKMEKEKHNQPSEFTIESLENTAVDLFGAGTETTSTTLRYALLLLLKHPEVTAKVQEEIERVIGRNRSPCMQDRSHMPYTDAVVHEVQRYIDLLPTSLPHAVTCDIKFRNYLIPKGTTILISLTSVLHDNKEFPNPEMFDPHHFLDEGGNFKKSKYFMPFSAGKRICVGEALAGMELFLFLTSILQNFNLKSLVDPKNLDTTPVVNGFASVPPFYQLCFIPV

O=c1ccc2ccccc2o1 [Coumarin]
Inhibitor Rate (%) (CYP2A6): 6.60%

Nc1ccc(S(=O)(=O)Nc2ccnn2-c2ccccc2)cc1 [Sulfaphenazole, reference compound]
effect of selective CYP450 inhibitor on TPB15 metabolism (significance vs positive control group) [1]: significantly inhibited | Inhibitor Rate (%) (CYP2C9): 81.22%

O=c1c(O)c(-c2ccc(O)c(O)c2)oc2cc(O)cc(O)c12 [Quercetin]
Inhibitor Rate (%) (CYP2C8): 8.63%

C[C@]12CC[C@H]3[C@@H](CCC4=CC(=O)CC[C@@]43C)[C@@H]1CC[C@@H]2O [testosterone]
Concentration (ng/mL) of testosterone, single samples (serial number 1-3) ([2]; 0 min): 273 ng/mL and 379 ng/mL and 308 ng/mL | Concentration (ng/mL) of testosterone, Mean ([2]; 0 min): 320.0 ng/mL | Concentration (ng/mL) of testosterone, single samples (serial number 1-3) ([2]; 90 min): 19.2 ng/mL and 22.9 ng/mL and 34.7 ng/mL | Concentration (ng/mL) of testosterone, Mean ([2]; 90 min): 25.6 ng/mL | Concentration (ng/mL) of testosterone, single samples (serial number 1-3) ([3]; 0 min): 331 ng/mL and 303 ng/mL | Concentration (ng/mL) of testosterone, Mean ([3]; 0 min): 321.7 ng/mL | Concentration (ng/mL) of testosterone, Mean ([3]; 90 min): 22.6 ng/mL | Concentration (ng/mL) of testosterone, single samples (serial number 1-3) [4]: 400 ng/mL and 314 ng/mL and 356 ng/mL | Concentration (ng/mL) of testosterone, Mean ([4]; positive control substrate): 356.7 ng/mL | Concentration (ng/mL) of testosterone, single samples (serial number 1-3) ([5]; 0 min): 293 ng/mL and 385 ng/mL and 301 ng/mL | Concentration (ng/mL) of testosterone, Mean ([5]; 0 min): 326.4 ng/mL | Concentration (ng/mL) of testosterone, single samples (serial number 1-3) ([5]; 90 min): 29.2 ng/mL and 39.7 ng/mL and 38.2 ng/mL | Concentration (ng/mL) of testosterone, Mean ([5]; 90 min): 35.7 ng/mL | Concentration (ng/mL) of testosterone, single samples (serial number 1-3) ([6]; 0 min): 300 ng/mL and 364 ng/mL and 375 ng/mL | Concentration (ng/mL) of testosterone, Mean ([6]; 0 min): 346.3 ng/mL | Concentration (ng/mL) of testosterone, Mean ([6]; 90 min): 17.5 ng/mL
